Experimental data as given in patent publication US20160298082A1, “METHOD FOR OBTAINING IMMUNO-STIMULATORY DENDRITIC CELLS” (TRANSIMMUNE AG, priority 2013, published 2016).
Entries after “also recorded” stand apart in the source; their conditions may differ. No end group written: not given here.

Key:
MoDC [1] = assay: IL-10 and IL-12p70 ELISA in siRNA experiments; type: cell-based, human; conditions: siRNA experiment, not transfected
Description: Silencer select pre-designed and validated GILZ siRNA (Invitrogen), with off-target prediction algorithms, was used to knockdown GILZ expression. Mo-DC were transfected using Lipofectamine RNAiMAX Reagent (Invitrogen). RNAi duplex and lipofectamine reagent were incubated together for 20 min, then added to MoDC cultures and incubated for 2 hr at 37° C. and 5% CO2. Transfected MoDC were treated in an identical fashion as described for the MoDC/lymphocyte co-cultures. MoDC were also transfected with scramble siRNA.
(§1) Culture supernatants were analyzed in a multiplex format utilizing magnetic beads to IL-6, IL-8, IL-10, IL-12p70, IFN-γ, TNF-α, RANTES, MCP-1, and MIP-1β (BioRad Laboratories). For siRNA experiments, supernatants were analyzed with enzyme-linked immunosorbent assay (ELISA) kits for IL-10 (R&D Systems) and IL-12p70 (Enzo Life Science). All samples and standards were run in duplicate and analyzed using the LUMINEX 200 (LUMINEX), or the BioTek EL800 (BioTek).

GILZ = GILZ mRNA expression in CD11c+ MoDC (quantitative real-time PCR); type: cell-based, human; conditions: relative to untreated MoDC cultured alone; 24 hr (FIG. 13B); dex 100 nM; PUVA 100 ng/mL, 1 J/cm^2
Description: Monocytes were cultured at a density of 5×10^6 cells/mL in 6- and 12-well polystyrene tissue culture plates at 37° C. and 5% CO2 in RPMI-1640 (Gibco) supplemented with heat-inactivated 15% AB serum (Gemini) and 1% penicillin/streptomycin (now referred to as complete media). 800 IU/mL recombinant human GM-CSF (R&D Systems) and 1000 IU/mL recombinant human IL-4 (R&D Systems) were added to cultures for 36 hr to induce monocyte to DC differentiation as described.
Non-adherent cells (purity: 66.0±4.5% CD3^+) removed during plastic adherence will now be generally referred to as lymphocytes. Lymphocytes were treated with 8-MOP (100 ng/mL) and UVA (1 J/cm^2), washed with PBS, and co-cultured in complete media at 37° C. and 5% CO2 with either PUVA-treated or untreated-MoDC in a ratio of 5 or 10 lymphocytes to 1 MoDC. […] 24 hr after LPS stimulation, cells were harvested for RNA isolation and immunophenotyping, and supernatants were collected for cytokine quantification.
RNA was isolated from CD11c^+ MoDC using QIAShredder columns (QIAGEN) and the RNeasy Mini Kit (QIAGEN) with on-column Dnase I treatment (QIAGEN). RNA yield and purity were assessed using a NanoDrop ND-1000 spectrophotometer. cDNA was obtained using the High Capacity cDNA Reverse Transcription Kit (Applied Biosystems) in a 96-well thermocycler (MJ Research PTC-200). […]

MoDC [2] = assay: Cytokine quantification in MoDC supernatants after LPS stimulation (magnetic bead multiplex); type: cell-based, human; conditions: after LPS; untreated MoDC 6.7
Description: Lymphocytes were treated with 8-MOP (100 ng/mL) and UVA (1 J/cm^2), washed with PBS, and co-cultured in complete media at 37° C. and 5% CO2 with either PUVA-treated or untreated-MoDC in a ratio of 5 or 10 lymphocytes to 1 MoDC. MoDC treated for 24 hr with 100 nM dexamethasone (Sigma) served as the positive control group. After 24 hr, cells were harvested and MoDC were re-purified. […] CD11c^+ MoDC were re-plated at 0.5-1.0×10^6 cells/mL in complete media and stimulated with 100 ng/mL LPS (Sigma). 24 hr after LPS stimulation, cells were harvested for RNA isolation and immunophenotyping, and supernatants were collected for cytokine quantification.
as §1

platelets = assay: Platelet adhesion to protein-coated Vena8 channels under flow; type: cell-based, human; conditions: for Platelet adhesion to fibrinogen-coated plates after pre-incubation of platelets with peptide / Platelet adhesion to fibronectin-coated plates after pre-incubation of platelets with peptide: PRP pre-incubated with 2 mM peptide 20 min
Description: Platelet adhesion experiments were performed using the Vena8 flow chamber described above. Fibrinogen and fibronectin (Sigma) were dissolved in PBS to a final concentration of 200 mcg/ml. Channels of the Vena8 chips were incubated at room temperature in a humidified chamber for 2 hours with the protein solution, autologous plasma, or PBS alone. The channels were washed with 5× the volume RPMI. Platelet-rich-plasma was then perfused through the protein-coated channel at the indicated shear-stress, held constant. For each channel, still images were acquired exactly 90 seconds into the experiment at 4 pre-defined low power fields located along the flow path (fields were centered at 2500, 7500, 12500, and 17500 microns from the start point of infusion).
Some experiments involved pre-treating platelet-rich-plasma with protein fragments prior to infusion through the channels. Small RGD peptides, containing the amino-acid sequence Arg-Gly-Asp-Ser; DRG peptides, contain the amino-acid sequence Ser-Asp-Gly-Arg; or fragment 400-411 of fibrinogen, containing the amino-acid sequence His-His-Leu-Gly-Gly-Ala-Lys-Gln-Ala-Gly-Asp-Val, were incubated at a concentration of 2 mM with PRP for 20 minutes at room temperature. The PRP was then perfused through the channels as previously described.

[3] = tested on: monocyte-platelet interactions; assay: Monocyte-platelet interactions on platelet-coated plates under flow (receptor-ligand studies); type: cell-based, human
Description: Platelet-coated Vena8 channels were pre-treated with either 40 μg/ml anti-P-selectin (R&D Systems) or 40 μg/ml of an isotype control for 30 minutes at room temperature, then washed with 5× the volume RPMI. Mononuclear cell suspensions were pre-treated with either RGD or DGR peptides at a concentration of 2.5 mM. Video samples lasting 400 frames (26.3 seconds) were recorded 60 seconds after commencement of flow using a lower power field of view spanning 400 microns and centered at 7500 microns from the flow start point.
The monocyte-platelet interactions observed on video were divided into two categories: (1) short-acting, arbitrarily defined as contact occurring for less than 3 seconds (46 frames), and (2) long-acting, defined as contact longer than 3 seconds, including stable binding. Since it had been previously determined that the platelets in the ECP system were in an activated state, and that activated platelets express an array of proteins including P-selectin and RGD containing proteins (e.g. fibronectin, fibrinogen, and vitronectin), it was sought to determine the involvement, if any, of these proteins in either short or long-duration interactions. Plates were pre-coated with platelets, and four conditions tested: (1) platelets pre-treated with an irrelevant isotype control, and monocytes untreated (P+RGD+); (2) platelets pre-treated with an irrelevant isotype control, and monocytes pre-incubated with RGD peptides (P+RGD−); (3) platelets pre-treated with anti-P-selectin, and monocytes untreated (P−RGD+); (4) platelets pre-treated with anti-P-selectin, and monocytes pre-treated with RGD peptides (P−RGD−). It was assumed that pre-treating monocytes with RGD peptides should result in a decreased in the number of free RGD-recognizing receptors available to interact with RGD-containing proteins expressed by the platelets. […] As shown by FIG. 6, both short-acting and long-acting interactions were maximal when neither RGD nor P-selectin were blocked (P+RGD+); the level of interaction in all other conditions was expressed as a percentage of this maximum. […]

[4] = molecular target: β1 integrin (CD29), active (open) conformation, on monocytes (human) (UniProt P05556); assay: flow cytometry of monocytes immediately after flow over platelet-coated plates, high number of platelet interactions
[5] = molecular target: β1 integrin (CD29), active (open) conformation, on monocytes (human) (UniProt P05556); assay: flow cytometry of monocytes immediately after flow over platelet-coated plates, low number of platelet interactions
[6] = molecular target: β1 integrin (CD29), active (open) conformation, on monocytes (human) (UniProt P05556); assay: flow cytometry of monocytes before passage through the plates
[7] = molecular target: RGD-recognizing receptors (on monocytes); assay: cell-based or functional assay
[8] = 0.5 dyne/cm2, relative to P+RGD+ maximum

β1 integrin (CD29), active (open) conformation, on monocytes (human), sequence (P05556 21-798): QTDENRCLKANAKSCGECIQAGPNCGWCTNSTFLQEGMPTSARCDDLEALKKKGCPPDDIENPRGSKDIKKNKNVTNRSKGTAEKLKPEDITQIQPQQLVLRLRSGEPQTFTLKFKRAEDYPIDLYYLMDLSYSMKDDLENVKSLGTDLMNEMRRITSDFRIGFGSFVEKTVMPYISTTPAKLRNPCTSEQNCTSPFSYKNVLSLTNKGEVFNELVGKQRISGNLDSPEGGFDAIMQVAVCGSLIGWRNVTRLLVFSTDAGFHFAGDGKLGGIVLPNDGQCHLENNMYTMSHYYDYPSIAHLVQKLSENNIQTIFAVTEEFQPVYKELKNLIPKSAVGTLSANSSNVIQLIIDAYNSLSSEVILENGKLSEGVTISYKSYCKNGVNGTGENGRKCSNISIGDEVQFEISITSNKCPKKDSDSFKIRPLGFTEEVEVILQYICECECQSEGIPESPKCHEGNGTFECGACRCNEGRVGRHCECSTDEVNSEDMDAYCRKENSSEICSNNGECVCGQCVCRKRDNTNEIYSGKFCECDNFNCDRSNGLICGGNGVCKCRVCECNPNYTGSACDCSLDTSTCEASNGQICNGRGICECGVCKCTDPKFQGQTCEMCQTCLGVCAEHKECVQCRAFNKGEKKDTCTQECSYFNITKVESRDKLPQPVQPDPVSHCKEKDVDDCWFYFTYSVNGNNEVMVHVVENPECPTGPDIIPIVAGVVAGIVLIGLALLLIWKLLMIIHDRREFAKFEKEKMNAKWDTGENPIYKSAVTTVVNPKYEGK

## C[C@@H]1C[C@H]2[C@@H]3CCC4=CC(=O)C=C[C@]4(C)[C@@]3(F)[C@@H](O)C[C@]2(C)[C@@]1(O)C(=O)CO [dexamethasone]
MoDC [1]
  IL-10 to IL-12p70 ratio, non-transfected MoDC cultured alone: 15.3
GILZ
  GILZ up-regulation, MoDC cultured alone: 4.29 fold
MoDC [2]
  Ratio of IL-10 to IL-12p70, MoDC cultured alone: 67.7

## Arg-Gly-Asp-Ser (RGDS; printed: Arg-Gly-Asp-Ser) [RGD peptides, small RGD peptides]
platelets
  Platelet adhesion to fibrinogen-coated plates after pre-incubation of platelets with peptide: not significantly altered
  Platelet adhesion to fibronectin-coated plates after pre-incubation of platelets with peptide: decreased adhesion significantly
[3]; [8]
  Long-duration (>3 s) monocyte-platelet interactions: significant decrease
  Short-duration (<3 s) monocyte-platelet interactions: did not significantly alter; also recorded: no change
[3]; monocytes pre-incubated with RGD peptides 2.5 mM (P+RGD−)
  Decrease of long-duration monocyte-platelet interactions: 44%

## HHLGGAKQAGDV [gamma fragments, gamma component of fibrinogen, amino acids 400-411]
platelets
  Platelet adhesion to fibrinogen-coated plates after pre-incubation of platelets with peptide: decreased
  Platelet adhesion to fibronectin-coated plates after pre-incubation of platelets with peptide: had no effect
platelets; listed as peptide fragments corresponding to amino acids 400-411 of fibrinogen
  Platelet adhesion to fibrinogen-coated plates after pre-incubation of platelets with peptide: significantly decreased

## anti-CD29 HUTS-21 (BD Biosciences) (antibody)
[4]
  percent of monocytes that bound the antibody (β1 in the active form): 71%
[5]
  percent of monocytes that bound the antibody (β1 in the active form): 9%
[6]
  percent of monocytes that bound the antibody (baseline integrin activation): < 10%

## fibrinogen
platelets; coating 200 mcg/ml, wall shear stress 0.2 to 6.0 dyne/cm^2
  Platelet adhesion to plates coated with the protein: highest concentrations of platelets adhered

## RGDS [RGD peptides, containing the amino-acid sequence Arg-Gly-Asp-Ser]
[7]
  long-duration monocyte-platelet interactions under flow (video microscopy): 44%
